Assays:
[1] = molecular target: T1, KRas G12C (Homo sapiens, UniProt P01116, C118S/C51S/C80L/G12C); assay: KRas G12C Modification Assay (LCMS detection of covalent adduct); assay type: binding; settings: 5 μM concentration for 3 hours
T1 construct: GDP-loaded K-Ras (1-169) G12C, C51S, C80L, C118S
Experimental: This Example illustrates that exemplary compounds of the present invention covalently bind to KRas G12C using a LCMS assay to detect a covalent adduct of the exemplary compound and KRAS G12C.
The protein concentration of GDP-loaded K-Ras (1-169) G12C, C51S, C80L, C118S and GTP-loaded K-Ras (1-169) G12C, C51S, C80L, C118S, Q61H was adjusted to 2 μM in K-Ras Assay Buffer (25 mM HEPES, 150 mM NaCl, 5 mM MgCl2, and 10 mM Octyl β-glucopyranoside at pH 7.5). A 10 μL aliquot of each protein solution was transferred to a 384 well microtiter plate. Initial compound stocks were generated at fifty times their desired final assay concentration in DMSO.
Exemplary compounds of formula (I) were diluted 25-fold into K-Ras Assay Buffer to a final of two times their final concentration. A 10 μL aliquot of each diluted compound solution was added to each of the protein solutions in the microtiter plate to initiate reaction. Typical final compound concentrations were 3.0, 5.0 and 25.0 μM. At each time point, the reactions were quenched with 20 μL of a 25 mM acetic acid solution. Usual assay endpoints were 15, 180 and 1440 minutes. Once all reactions were quenched, the plates were heat sealed and the samples were injected into a LC/MS system for data acquisition.
Data collection took place on an Agilent 6520 Q-TOF Accurate Mass Spectrometer. Samples were injected in their liquid phase onto a C-3 reverse phase column to remove assay buffer and prepare the samples for mass spectrometer. The proteins were eluted from the column using an acetonitrile gradient and fed directly into the mass analyzer. Initial raw data analysis took place in Agilent MassHunter software immediately post data acquisition.
Raw data analysis of the intact protein was exclusively a deconvolution of the multiple charge states of each protein in solution using a maximum entropy deconvolution provided in Mass Hunter. To minimize complexity, only the data over limited mass ranges were considered for analysis, with a minimum of one Dalton mass step intervals. The heights of all masses identified during raw data analysis were exported to be further analyzed in Spotfire® data analysis software.
Final data analysis was a multistep process in the Spotfire® data analysis software package. Briefly, each protein mass was calculated as a percent of the total signal of that sample, that percentage was normalized to the percentage of signal of the protein in the absence of reactive compounds. Those normalized signals were reported as normalized percent of control (POC). […] Key: N.D. is not determined.

[2] = molecular target: T2, KRas G12C (Homo sapiens, UniProt P01116, G12C); assay: Cellular inhibition of KRas G12C measured by Phospho-ERK in NCI-11358 cells; assay type: cell-based; settings: NCI-11358 cells (ATCC CRL-5807), 3 hours; read-out: Inhibition (IC50, pERK (Thr202/Tyr204) signal normalized with GAPDH)
T2 construct: NCI-11358 cells (ATCC CRL-5807) express KRas G12C; host or cells: NCI-H358
Experimental: The cellular inhibition of KRAs G12C by exemplary compounds of the present invention was determined by measuring the amount of a downstream marker of KRas activity, phosphorylated ERK (“Phospho-ERK”).
NCI-11358 cells (ATCC CRL-5807) express KRas G12C and were grown in RPMI medium supplemented with 10% fetal bovine serum, penicillin/streptomycin and 10 mM HEPES. Cells were plated in poly-D-Lysine coated 96-well plates at a concentration of 50,000 cells/well and allowed to attach for 8-12 hours. Diluted compounds were then added at a final concentration of 0.5% DMSO. After 3 hours, the medium was removed, 150 μL of 4% formaldehyde was added and the plates were incubated for 20 minutes. The plates were washed with PBS, and permeabilized using 150 μL of ice cold 100% methanol for 10 minutes. Non-specific antibody binding to the plates was blocked using 100 μL Licor Blocking Buffer (Li-Cor Biotechnology, Lincoln NE) for 1 hour at room temperature. Positive control samples and samples lacking cells were parallel processed with test samples as standards.
The amount Phospho-ERK was determined using an antibody specific for the phosphorylated form of ERK and compared to the amount of GAPDH. Primary antibodies used for detection were added as follows: Phospho-ERK (Cell Signaling cs9101) diluted 1:500 and GAPDH (Millipore MAB374) diluted 1:5000 in Licor block+0.05% Tween 20. The plates were incubated for 2 hours at room temperature. The plates were washed with PBS+0.05% Tween 20.
Secondary antibodies used to visualize primary antibodies were added as follows: Anti-rabbit-680 diluted 1:1000 and Anti-mouse-800 diluted 1:1000 in Licor Block+0.05% Tween 20 and incubated for 1 hour at room temperature. The plates were washed with PBS+0.05% Tween 20. A 100 μL aliquot of PBS was added to each well and the plates were read on a LICOR AERIUS plate reader.
The pERK (Thr202/Tyr204) signal was normalized with the GAPDH signal and percent of DMSO control values were calculated. IC50 values were generated using a 4 parameter fit of the dose response curve. Key: “A”: ≤1 μM, “B”>1 μM and N.D.=not determined.

POC (normalized percent of control, covalent modification of KRas G12C) [1]	IC50 [2]	SMILES
87% of control	≤ 1000 nM	C=CC(=O)N1CC(CN2C(=O)C(CN3CCN(C)CC3)Oc3cc(-c4cc(O)cc5ccccc45)c(Cl)cc32)C1 (stereo not shown) [Example 8, 4-((1-acryloylazetidin-3-yl)methyl)-6-chloro-7-(3-hydroxynaphthalen-1-yl)-2-((4-methylpiperazin-1-yl)methyl)-2H-benzo[b][1,4]oxazin-3(4H)-one bis(2,2,2-trifluoroacetate)]
86% of control	> 1000 nM	C=CC(=O)N1CC(CN2C(=O)C(CN3CCCC3)Oc3cc(-c4cccc5ccccc45)c(Cl)cc32)C1 (stereo not shown) [Example 24, 4-((1-acryloylazetidin-3-yl)methyl)-6-chloro-7-(naphthalen-1-yl)-2-(pyrrolidin-1-ylmethyl)-2H-benzo[b][1,4]oxazin-3(4H)-one 2,2,2-trifluoroacetate]
